# Read-outs that look alike come from different tables or passages of the source.
# Experiments:
# [1] = CREMOPHOR EL:ethanol formulations, dissolution and stability after dilution in saline; format: physicochemical; settings: for Stability following dilution in saline, Dilution 1/5 / Stability following dilution in saline, Dilution 1/10 / Stability following dilution in saline, Dilution 1/20: monitored 24 hours
# Description: Once it was established that a cosolvent formulation made of CREMOPHOR EL® (polyoxyl 35 castor oil) and ethanol is appropriate to dissolve the drug, a matrix of such formulations was prepared at various concentrations (from 30 to 70% w/w of each ingredient) and with increasing amounts of dexanabinol of high enantiomeric purity (20, 50 and 100 mg/ml). The exact composition of these formulations is described in the left hand side of Table 5. The drug cosolvent concentrates were diluted at various ratios in saline and the stability of the drug in the resulting solutions was monitored for 24 hours.
# [2] = Phase II study, single i.v. dose in patients with severe head trauma; format: in vivo, human; settings: human, plasma, iv, severe TBI patients, mean ± SE; for AUC / Cmax: up to 24 hr; for Vd: read-out: Vss
# Description: (§1) A Phase II, double masked, multi-center study was conducted to evaluate the safety and tolerance of dexanabinol of high enantiomeric purity following a single intravenous administration in patients with severe head trauma (Knoller N. et al., Crit. Care Med. 30: 548-54, 2002). Treatment was administered within 6 hours of injury, based on the therapeutic window observed in relevant animal models. Additional objectives of the study were to evaluate the long-term outcome of the patients and to determine the optimal dose for Phase III studies.
# (§2) Medical information was collected en route or upon arrival at the hospital to determine a patient's suitability for enrollment and a randomized patient number was assigned. Written informed consent was obtained from relatives, all eligible patients being in coma. Antihistamines (promethazine hydrochloride PHENERGAN® 25 mg and cimetidine 50 mg) were administered by intravenous bolus injection 15 minutes prior to study drug administration. Dexanabinol was manufactured and formulated as previously described (50 mg/ml in CREMOPHOR EL®:ethanol clinical formulation) and diluted into 100 ml saline prior to injection. Solutions of dexanabinol were infused intravenously using a peristaltic pump (Ivac) at a rate of 6 ml/min (or approximately 15 min/dose). The total doses of dexanabinol scheduled to be administered were 48, 150, or 200 mg per patient. Five milliliters of blood were removed (from the contralateral arm) at the end of the infusion, at 10 and 30 min, and at 1, 3, 6, 12, and 24 hours thereafter for determination of plasma dexanabinol concentrations. Pharmacokinetic parameters were estimated by non-compartmental methods (WinNonlin Professional version 3.2) up to 24 hr post-injection.
# (§3) Primary end points included intracranial pressure (ICP), cardiovascular function (heart rate, mean arterial blood pressure, cerebral perfusion pressure and electrocardiogram), clinical laboratory tests, and adverse medical events. The clinical outcome was assessed by the Glasgow outcome scale throughout a six month follow-up period. The nature and incidence of adverse medical events were similar in all groups supporting the safety of dexanabinol of high enantiomeric purity. […] Dexanabinol is currently being tested in a Phase III clinical trial for TBI.
# [3] = test system: severe traumatic brain injury (TBI); assay: as above; format: in vivo, human; settings: for AUC∞/Dose: severe TBI patients, mean ± SE, normalized for dose (mg/kg)
# Description: as §1, §2, §3
# [4] = 20 mg/ml in 30% CREMOPHOR EL/70% ethanol
# [5] = 20 mg/ml in 50% CREMOPHOR EL/50% ethanol
# [6] = 20 mg/ml in 70% CREMOPHOR EL/30% ethanol
# [7] = 50 mg/ml in 30% CREMOPHOR EL/70% ethanol
# [8] = 50 mg/ml in 50% CREMOPHOR EL/50% ethanol
# [9] = 50 mg/ml in 70% CREMOPHOR EL/30% ethanol
# [10] = 100 mg/ml in 30% CREMOPHOR EL/70% ethanol
# [11] = 100 mg/ml in 50% CREMOPHOR EL/50% ethanol
# [12] = 100 mg/ml in 70% CREMOPHOR EL/30% ethanol
# [13] = 48 mg single i.v. infusion (n = 10)
# [14] = 150 mg single i.v. infusion (n = 20)
# [15] = 200 mg single i.v. infusion (n = 21)
compound,measurement,setting,value
"CCCCCCC(C)(C)c1cc(O)c2c(c1)OC(C)(C)[C@H]1CC=C(CO)C[C@H]21 [dexanabinol, 1,1-dimethylheptyl-(3S,4S)-7-hydroxy-Δ^6-tetrahydrocannabinol]",amount of dexanabinol dissolved by CREMOPHOR EL:ethanol cosolvent formulations,[1],at least 100 mg/ml
same,"Stability following dilution in saline, Dilution 1/5",[1]; [4],Stable
same,"Stability following dilution in saline, Dilution 1/10",[1]; [4],Stable
same,"Stability following dilution in saline, Dilution 1/20",[1]; [4],Stable
same,"Stability following dilution in saline, Dilution 1/5",[1]; [5],Stable
same,"Stability following dilution in saline, Dilution 1/10",[1]; [5],Stable
same,"Stability following dilution in saline, Dilution 1/20",[1]; [5],Stable
same,"Stability following dilution in saline, Dilution 1/5",[1]; [6],Stable
same,"Stability following dilution in saline, Dilution 1/10",[1]; [6],Stable
same,"Stability following dilution in saline, Dilution 1/20",[1]; [6],Stable
same,"Stability following dilution in saline, Dilution 1/5: crystals appeared at",[1]; [7],appeared at 2 hours
same,"Stability following dilution in saline, Dilution 1/10: crystals appeared at",[1]; [7],2 h
same,"Stability following dilution in saline, Dilution 1/20: crystals appeared at",[1]; [7],2.5 h
same,"Stability following dilution in saline, Dilution 1/5: stable at least",[1]; [8],least 7 hours
same,"Stability following dilution in saline, Dilution 1/10: stable at least",[1]; [8],least 4 hours
same,"Stability following dilution in saline, Dilution 1/20: stable at least",[1]; [8],≥ 7 h
same,"Stability following dilution in saline, Dilution 1/5: stable at least",[1]; [9],least 7 hours
same,"Stability following dilution in saline, Dilution 1/10: stable at least",[1]; [9],least 7 hours
same,"Stability following dilution in saline, Dilution 1/20: stable at least",[1]; [9],≥ 7 h
same,stability after dilution with saline,"[1]; 50 mg/ml in 70:30 CREMOPHOR EL:ethanol, all ratios from 1:5 to 1:20",stable
same,"Stability following dilution in saline, Dilution 1/5: crystals appeared at",[1]; [10],45 min
same,"Stability following dilution in saline, Dilution 1/10: crystals appeared at",[1]; [10],0.917 h
same,"Stability following dilution in saline, Dilution 1/20: crystals appeared at",[1]; [10],1.5 h
same,"Stability following dilution in saline, Dilution 1/5: crystals appeared at",[1]; [11],90 min
same,"Stability following dilution in saline, Dilution 1/10: crystals appeared at",[1]; [11],1.5 h
same,"Stability following dilution in saline, Dilution 1/20: crystals appeared at",[1]; [11],1.5 h
same,"Stability following dilution in saline, Dilution 1/5: crystals appeared at",[1]; [12],appeared at 2 hours
same,"Stability following dilution in saline, Dilution 1/10: crystals appeared at",[1]; [12],2 h
same,"Stability following dilution in saline, Dilution 1/20: crystals appeared at",[1]; [12],3.5 h
same,AUC(0-inf),[2]; [13],572 ng·h/mL
same,MRT,[2]; [13],4.1 ± 0.7 h
same,clearance,[2]; [13],22.6 ± 3.9 mL/min/kg
same,half-life,[2]; [13],7 ± 0.9 h
same,AUC,[2]; [13],548 ng·h/mL
same,Cmax,[2]; [13],1150 ng/mL
same,Vd,[2]; [13],6.6 ± 2.6 L/kg
same,AUC(0-inf),[2]; [14],1480 ng·h/mL
same,MRT,[2]; [14],3.8 ± 0.4 h
same,clearance,[2]; [14],31 ± 5.8 mL/min/kg
same,half-life,[2]; [14],5.3 ± 0.5 h
same,AUC,[2]; [14],1450 ng·h/mL
same,Cmax,[2]; [14],1970 ng/mL
same,Vd,[2]; [14],7.5 ± 1.5 L/kg
same,AUC(0-inf),[2]; [15],3250 ng·h/mL
same,MRT,[2]; [15],3.5 ± 0.3 h
same,clearance,[2]; [15],17.6 ± 1.9 mL/min/kg
same,half-life,[2]; [15],6.3 ± 0.3 h
same,AUC,[2]; [15],3170 ng·h/mL
same,Cmax,[2]; [15],5790 ng/mL
same,Vd,[2]; [15],4.2 ± 0.9 L/kg
same,AUC∞/Dose,[3]; [13],"51,846 ± 5,526 ng × min/ml"
same,AUC∞/Dose,[3]; [14],"43,542 ± 4,329 ng × min/ml"
same,AUC∞/Dose,[3]; [15],"69,007 ± 5,835 ng × min/ml"
same,neurological outcome,"[3]; Glasgow outcome scale, six month follow-up",trend toward faster and better neurological outcome
same,Cmax Ratio to Phase II,"[3]; human Phase II, 150 mg single i.v., reference itself",1.0
same,safety in severe head injury,"[3]; single i.v. 48, 150 or 200 mg within 6 hours of injury",safe and well tolerated
same,intracranial pressure/cerebral perfusion pressure control,"[3]; treated patients, without jeopardizing blood pressure",significantly better

# Source: US20070060636A1, “High enantiomeric purity dexanabinol for pharmaceutical compositions” (priority 2002, published 2007)
